# Tests used:
# [1] = test system: E. globulus hypocotyl sections; experiment: E. globulus gene introduction test, vector pIPT10 (ipt only + GUS), adventitious bud redifferentiation and GUS staining; format: cell-based, Eucalyptus globulus; details: for B/A Redifferentiation ratio / C/A Gene introduction ratio / C/B Selection efficiency: section basis
# Experimental: Seeds of E. globulus from Chile were sterilized by soaking in 70% ethanol for about 1 minute and then soaking with stirring in a 2% aqueous sodium hypochlorite solution for about 4 hours, washed thoroughly with sterile water, inoculated on an MS agar medium to which 0.5 mg/l zeatin had been added and stored in a refrigerator at 4° C. for 2 days to accelerate germination, and then the germination was carried out by culturing at 25° C. under light conditions of about 10 μmol/m^2/s in light intensity. One to two weeks after the inoculation of the seeds onto the germination medium, hypocotyls were collected by cutting out apical buds, cotyledons and roots of the germinated seedlings, and the hypocotyls were cut into sections of about 5 mm to be used as samples for gene introduction and subjected to the following test. A. tumefaciens EHA105 introduced with the plasmid pIAH6 in the above item I was cultured overnight in the YEB liquid medium and then diluted to OD630 =0.5 with EG basal medium, and the sections of hypocotyl prepared in the above were soaked in the cell suspension. Next, each of the sections after removing excess cell suspension was co-cultured with Agrobacterium on an agar medium (agar 8.5 g/l) prepared by adding 1.0 mg/l zeatin, 0.05 mg/l NAA and 40 mg/l acetosyringone to the EG basal medium, at 25° C. for 3 days in the dark to thereby infect each section with the pIAH6-introduced Agrobacterium. In this case, a modified MS medium having an ammonia nitrogen/nitrate nitrogen concentration ratio of 1:3 (5 mM NH4, 15 mM NO3) was supplemented with 20 g/l sucrose and used as the EG basal medium. The sections after infection culturing were put on an EG basal agar medium (agar 8.5 g/l) supplemented with 500 mg/l ticarcillin and 1 μM or 10 μM of an auxin precursor analogue NAM, and the culturing was continued at 25° C. under light conditions of 30 to 40 μmol/m^2/s in light intensity while sub-culturing at an interval of 2 weeks using the same medium. Among these sections, the quicker ones redifferentiated adventitious buds after about 2 months of the Agrobacterium infection. Three months after the Agrobacterium infection, in order to examine expression of the GUS gene used as a model of the desired gene, the redifferentiated adventitious buds were subjected to a GUS staining test in accordance with the method of Jefferson et al. (Plant Mol. Biol. Rep., 5: 387-405 (1987)), and the degree of formation of desired gene-introduced adventitious buds was judged by examining the number of stained adventitious buds (the number of adventitious buds expressing the desired gene). An E. globulus gene introduction test was carried out in the same manner as in Example 1, except that the hypocotyl sections after the Agrobacterium infection were cultured using the EG basal agar medium (agar 8.5 g/l) supplemented with 500 mg/l ticarcillin and 0 μM, 1 μM or 10 μM NAA as auxin. An E. globulus gene introduction test was carried out in the same manner as in Example 1 or Comparative Example 1, except that a plasmid pIPT10 having only the ipt gene as the selectable marker gene was used as the vector. Also, the vector also has the GUS gene as a model of the desired gene. Structure of T-DNA region of the pIPT10 used in this case is shown in FIG. 2, and results of the gene introduction test are shown in Table 3.
# [2] = test system: populus hybrid strain Y63 stem sections; experiment: populus hybrid gene introduction test, vector pIAH6, adventitious bud redifferentiation and multiple bud observation; format: cell-based, Populus sieboldii×Populus grandidentata; details: for B Adventitious bud differentiated (number of sections): 10 sections tested; for B/A Redifferentiation ratio / C/A Gene introduction ratio / C/B Selection efficiency: section basis; for number of redifferentiated adventitious buds into which the desired gene was introduced / total number of adventitious buds redifferentiated: bud basis; for C GUS + adventitious bud differentiated (number of sections): sections with bud judged as a multiple bud after culturing for 4 months
# Experimental: A transformant was produced by carrying out gene introduction into a populus hybrid (Populus sieboldii×Populus grandidentata) by the method of the present invention using the pIAH6 used in Example 1 as the vector. A stem of an aseptic seedling of a populus hybrid strain […] That is, the pIAH6-introduced A. tumefaciens LBA4404 obtained in the same manner as in Example 1 was cultured overnight in the YEB liquid medium and then diluted to OD630=0.5 with Y basal medium, and the stem sections prepared in the above were soaked in this cell suspension. Next, each of these sections after removing excess cell suspension was co-cultured with Agrobacterium on an agar medium (agar 8 g/l) prepared by adding 40 mg/l acetosyringone to the Y basal medium, at 25° C. for 3 days in the dark to thereby be infect with the pIAH6-introduced Agrobacterium. In this case, a modified MS medium (10 mM NH4, 30 mM NO3) was supplemented with 20 g/l sucrose and used as the Y basal medium. The sections after infection culturing were put on the Y basal agar medium (agar 8 g/l) supplemented with 500 mg/l ticarcillin and 1 μM, 5 μM or 30 μM of an auxin precursor analogue NAM, followed by culturing at 25° C. under light conditions of 30 to 40 μmol/m^2/s in light intensity. […] That is, since the ipt gene is not introduced into the escape, the adventitious bud was redifferentiated by mere influence of a desired gene-introduced cell which was present adjacent thereto.
# [3] = test system: stem sections of a high rooting clone of E. globulus; experiment: gene introduction test on high rooting clone of E. globulus, vector pIPT10; format: cell-based, Eucalyptus globulus; details: same manner as Example 3 (NAM 1 μM)
# Experimental: Definite buds of a high rooting clone of E. globulus from Chile were aseptically grown using a medium prepared by adding 0.5 mg/l zeatin to the Y basal medium of Example 2, and the elongated stems were cut into sections of 5 mm to be used as samples for gene introduction and infected with the plasmid pIAH6-introduced Agrobacterium in the same manner as in Example 1. The sections after infection culturing were put on an EG basal agar medium (agar 8.5 g/l) supplemented with 500 mg/l ticarcillin and 1 μM of an auxin precursor analogue NAM, and the culturing was continued at 25° C. under light conditions of 30 to 40 μmol/m^2/s in light intensity while sub-culturing at an interval of 2 weeks using the same medium. Four months after the Agrobacterium infection, the redifferentiated adventitious buds were subjected to a GUS staining test in accordance with the above method of Jefferson et al., and the degree of formation of desired gene-introduced adventitious buds was judged. Using plasmid pIPT10 as the vector, a gene introduction test was carried out into a high rooting clone of E. globulus in the same manner as in Example 3.
structure (smiles),measurement,setting,value
"NC(=O)Cc1cccc2ccccc12 [NAM, naphthaleneacetic acid amide]",B Adventitious bud differentiated (number of sections),[1]; additive 1 μM in medium,2 number of sections
same,C GUS + adventitious bud differentiated (number of sections),[1]; additive 1 μM in medium,0 number of sections
same,B/A Redifferentiation ratio,[1]; additive 1 μM in medium,4.4%
same,C/A Gene introduction ratio,[1]; additive 1 μM in medium,0.0%
same,C/B Selection efficiency,[1]; additive 1 μM in medium,0%
same,B Adventitious bud differentiated (number of sections),[1]; additive 10 μM in medium,0 number of sections
same,C GUS + adventitious bud differentiated (number of sections),[1]; additive 10 μM in medium,0 number of sections
same,B/A Redifferentiation ratio,[1]; additive 10 μM in medium,0%
same,C/A Gene introduction ratio,[1]; additive 10 μM in medium,0.0%
same,C/B Selection efficiency,[1]; additive 10 μM in medium,0%
same,B Adventitious bud differentiated (number of sections),[2]; NAM 1 μM in medium,7 number of sections
same,B/A Redifferentiation ratio,[2]; NAM 1 μM in medium,70.0%
same,C/A Gene introduction ratio,[2]; NAM 1 μM in medium,50.0%
same,C/B Selection efficiency,[2]; NAM 1 μM in medium,71.4%
same,number of redifferentiated adventitious buds into which the desired gene was introduced,[2]; NAM 1 μM,6
same,total number of adventitious buds redifferentiated,[2]; NAM 1 μM,67
same,C GUS + adventitious bud differentiated (number of sections),[2]; NAM 1 μM,5 number of sections
same,B Adventitious bud differentiated (number of sections),[2]; NAM 5 μM in medium,6 number of sections
same,B/A Redifferentiation ratio,[2]; NAM 5 μM in medium,60.0%
same,C/A Gene introduction ratio,[2]; NAM 5 μM in medium,40.0%
same,C/B Selection efficiency,[2]; NAM 5 μM in medium,66.7%
same,number of redifferentiated adventitious buds into which the desired gene was introduced,[2]; NAM 5 μM,5
same,total number of adventitious buds redifferentiated,[2]; NAM 5 μM,34
same,C GUS + adventitious bud differentiated (number of sections),[2]; NAM 5 μM,4 number of sections
same,B Adventitious bud differentiated (number of sections),[2]; NAM 30 μM in medium,0 number of sections
same,B/A Redifferentiation ratio,[2]; NAM 30 μM in medium,0%
same,C/A Gene introduction ratio,[2]; NAM 30 μM in medium,0%
same,C/B Selection efficiency,[2]; NAM 30 μM in medium,0%
same,C GUS + adventitious bud differentiated (number of sections),[2]; NAM 30 μM,0 number of sections
same,redifferentiated individuals into which the desired gene was introduced,[3],not obtained
same,redifferentiation of adventitious buds,[3],not redifferentiated

# Source: US20040163143A1, “Method for efficiently producing transgenic plant using auxin precursor” (NIPPON PAPER INDUSTRIES CO., LTD., priority 2002, published 2004)
